Laboratory results: ChEMBL document CHEMBL3507680, “University of Dundee, Gates Library screen for HepG2 cell viability”

assay: Human HepG2 cell viability assay in 384 well format; format: toxicity, cell-based; parameters: dose 125 nL, time 70.5 hour; cytotoxicity at 70.5 h: concentration not given beside the values; settings: HepG2 cells, read-out: Inhibition

SMILES | cytotoxicity at 70.5 h [%]
COc1ccccc1-c1nnc2n1NC(N)=C(C#N)S2 | -28.8
CCCc1nc2c(c(C)c(C)n2Cc2cccnc2)c(N)c1CC | 54.7
O=C(c1nc(Cc2c[nH]c3ccccc23)no1)N1CCCC1 | -3.26
Cc1ccnc(SCC(=O)Nc2csc3nc(=O)c(C)nn23)n1 | 7.67
O=C(O)CNC(=O)Cc1csc(-c2ccccc2F)n1 | 18.6
O=C(CNC(=O)N1CCc2c([nH]c3ccc(Cl)cc23)C1)NCCCO | -18.9
O=C1CCCC2=C1C(c1ccccc1Cl)Nc1nonc1N2 (stereo not drawn) | 0.0122
COCCNC(=O)c1nc(NS(=O)(=O)c2ccccc2)sc1C | -18.8
COc1ccccc1CNc1ccc2nncn2n1 | -11.2
COC(=O)CCNC(=O)c1nc(NS(=O)(=O)c2ccccc2)sc1C | -23
CC(=O)Nc1ccc(OCc2noc(C(=O)N3CCCCCC3)n2)cc1 | -21.4
N#CC1=C(N)Nn2c(nnc2-c2ccccc2Br)S1 | -19
CC(C)NC(=O)CCC(=O)N1CCC(c2noc3cc(F)ccc23)CC1 | -17.2
CN1C(=O)C2(CC(=O)Nc3c2cnn3C(C)(C)C)c2ccccc21 (stereo not drawn) | -18.7
O=C1CCCC2=C1C(c1cc(Cl)ccc1F)Nc1nonc1N2 (stereo not drawn) | 9.69
CCOC(=O)c1nc(COc2ccc(CC(N)=O)cc2)no1 | -10.5
COCCNC(=O)Cc1cnc(-n2cccc2)s1 | -22.5
Cc1occc1-c1nnc2n1NC(N)=C(C#N)S2 | -22.4
N#Cc1nc(COc2ccc3c(c2)OCO3)oc1N1CCCC1 | -26.5
CN1C(=O)C2(CC(=O)Nc3[nH]ncc32)c2ccc(F)cc21 (stereo not drawn) | -15.5
C[C@@H](O)CNC(=O)c1nc(CC(=O)Nc2cccc(C(F)(F)F)c2)no1 | -23.7
Cc1occc(=O)c1OCc1noc(C(=O)NC(C)C)n1 | -15.1
Cc1cccc(N2Cc3nc(=O)n(Cc4cccc(F)c4)n3C2=O)c1 | -18

SMILES | cytotoxicity at 70.5 h [%]
Cc1nc2oc(C(=O)N3CCOCC3)c(N)c2c2c1CCCC2 | -17.3
COc1cc2c(cc1OC)C(=O)C(Sc1nnc(C)o1)C2 (stereo not drawn) | -15.9
COC(=O)CCC(=O)N(Cc1ccc2cc[nH]c2c1)C1CC1 | -17.3
NC(=O)Cc1ccc(OCc2noc(C(=O)N3CCCC3)n2)cc1 | -23.4
O=S1(=O)CCC(S(=O)(=O)c2cccc(S(=O)(=O)N3CCOCC3)c2)C1 (stereo not drawn) | -8.35
Cc1ccc2c(c1)C1(CC(=O)Nc3[nH]ncc31)C(=O)N2C (stereo not drawn) | -21.9
CC(C)NC(=O)Cn1ccc2c(Cl)cccc21 | -19
Cc1occc(=O)c1OCc1noc(C(=O)NCC(C)C)n1 | -16.8
N#Cc1nc(COc2ccc3c(c2)OCO3)oc1N1CCCCCC1 | -21.8
Cc1cc(C)n(Cc2ccc(-c3noc(C(=O)NC[C@@H](C)O)n3)cc2)n1 | -14.8
CC[C@@H](C)[C@H](NC(=O)Cn1ccc2c(Cl)cccc21)C(=O)O | -13.9
CN1C(=O)COc2ccc(C(=O)Cn3cnc4ccsc4c3=O)cc21 | 17.1
CCC(C)NC(=O)c1snnc1-c1ccc(OC)cc1 (stereo not drawn) | 0.408
O=C(Cc1csc(-c2ccccc2F)n1)NCc1cccc(C(=O)O)c1 | -17.7
O=C(Nc1ccccn1)C1(n2cnnn2)CCCCC1 | -21.1
O=C1N(c2cccc(F)c2)Cc2nc(=O)n(Cc3ccc(Cl)cc3)n21 | -12.7
O=C1N(c2cccc(F)c2)Cc2nc(=O)n(Cc3ccccc3Cl)n21 | -18.7
CC(C)CCNC(=O)c1ccc(-n2cnc3ccccc3c2=O)cc1 | -27.3
COc1cccc(-c2nc(C)c(C(=O)NCCC(=O)O)s2)c1 | -15.8
CCc1c(C)sc2c1c(N)nc(=O)n2CCN(C)C | 18.9
COc1ccc2cnn(CC(=O)NC3CCCCC3)c(=O)c2c1OC | 1.17
Cc1occc(=O)c1OCC(=O)N1CCN(c2ccccc2)CC1 | -0.838
O=C(Cc1csc(-c2ccccc2Cl)n1)NCc1cccc(C(=O)O)c1 | -18.1

SMILES | cytotoxicity at 70.5 h [%]
COc1ccc(NC(=O)Cn2c(=O)nc(N)c3cc(C)sc32)cc1 | -13.1
O=C1CC(c2ccccc2)c2c(c(C(=O)O)cn2-c2ccccc2)N1 (stereo not drawn) | -10.7
Cc1n[nH]c2nc(-c3cc(Br)ccc3O)cc(C(=O)O)c12 | 8.54
CN1CCN(C(=O)c2cc3sccc3n2Cc2ccccc2)CC1 | -6.85
COC(=O)c1ccc(C2CC(=O)Nc3c2cnn3C)cc1 (stereo not drawn) | 3.26
Cc1c(OCC(=O)NCc2ccccc2)c(=O)ccn1C | -17.6
NC(=O)c1c(SCCN2CCCCC2)sc2c(O)cc(=O)[nH]c12 | -7.79
Cc1c(C2SCC(=O)Nc3c2cnn3C(C)(C)C)cnn1C (stereo not drawn) | -10.1
COc1ccccc1N1CCN(C(=O)COc2c(C)occc2=O)CC1 | 6.76
Cn1ncc2c1NC(=O)CSC2c1ccc2c(c1)OCO2 (stereo not drawn) | 10.3
Cc1ccc(CN2CC[C@H]3C(=O)N(c4cccnc4)CCO[C@H]3C2)o1 | -5.97
CN1Cc2c(C(=O)N3CCOCC3)ncn2-c2ccccc2S1(=O)=O | -1.47
CN1CCN(C(=O)c2ncn3c2CNS(=O)(=O)c2ccccc2-3)CC1 | 1.85
Cc1nc(-c2cc(C(=O)NCC(C)(C)CO)c3ccccn23)cs1 | 5.35
O=C(c1ccc[nH]1)N1CCC2(CC1)COCCN(c1nccs1)C2 | -1.47
CN1CC[C@]2(CN(C(=O)[C@H]3CCCO3)C[C@H]2c2ccccc2)C1=O | -2.45
O=S(=O)(C1CC1)N1CCn2c(Cn3cccn3)cnc2C1 | -1.3
Cc1csc(CN2CC[C@H]3C(=O)N(c4cccnc4)CCO[C@H]3C2)n1 | 11
O=C(CCCOc1ccc(F)cc1F)N1CCCC(n2cccn2)C1 (stereo not drawn) | -3.24
Cc1cnn(CC2CN(c3ccc(C#N)cn3)CCO2)c1 (stereo not drawn) | 23.6
NC(=O)NCC1CCCCN1C(=O)c1cccc(Cl)c1 (stereo not drawn) | -4.19
O=C(CCCc1ccccc1)N1CCC(Nc2cccnn2)CC1 | -4.29
Cc1ccc(CCC(=O)N2CCC(Nc3cccnn3)CC2)cc1 | 1.83

SMILES | cytotoxicity at 70.5 h [%]
Cc1nccn1C1CCCN(C(=O)c2ccc3cc[nH]c3c2)C1 (stereo not drawn) | -1.7
CCn1cc(NC(=O)C2CCN(CC(=O)NC(C)(C)CC)CC2)cn1 | -2.19
Cc1nccn1C1CCCN(C(=O)c2ccc3c(c2)OCCCO3)C1 (stereo not drawn) | -0.919
Cc1ccc(NC2CCN(C(=O)Cc3cccs3)CC2)nn1 | 2.71
CN(CC(=O)NC1CCOCC1)C1CCCN(c2cccnn2)C1 (stereo not drawn) | -2.74
Cc1cc(C)n(C2CCCN(C(=O)c3ccc(N(C)C)nc3)C2)n1 (stereo not drawn) | -2.57
Cc1noc(Cl)c1CCC(=O)N1CCC(Nc2cccnn2)CC1 | -0.162
CCCc1n[nH]c(C2CN(C(=O)c3cccc4[nH]ncc34)CCO2)n1 (stereo not drawn) | -3.81
O=C(c1csc(-c2nnc[nH]2)n1)N1CCCCC1Cn1cccn1 (stereo not drawn) | 1.45
O=S1(=O)CCC(N(Cc2nc(-c3ccccn3)no2)Cc2cccs2)C1 (stereo not drawn) | -4.77
O=C(c1cc(-c2cccs2)on1)N1CCCCC1Cn1cccn1 (stereo not drawn) | -8.41
Cc1ccc(NC2CCN(C(=O)CCCc3cccs3)CC2)nn1 | -2.88
Cc1oc(-c2cccs2)nc1C(=O)N1CCCC1Cn1cccn1 (stereo not drawn) | -6.8
CCCc1n[nH]c(C2CN(C(=O)c3cncnc3C)CCO2)n1 (stereo not drawn) | 3.13
CCc1nc2n(n1)CC(NCc1nc(Cc3ccccc3)no1)CC2 (stereo not drawn) | 25.4
Cc1noc(CN(Cc2cccs2)C2CCS(=O)(=O)C2)n1 (stereo not drawn) | -3.18
O=C(CCOc1cccc(F)c1)N1CCCC1Cn1cccn1 (stereo not drawn) | -0.422
O=C(CCCOc1ccccc1)N1CCCC1Cn1cccn1 (stereo not drawn) | -3.8
Cc1cn2c(n1)CCC(NC(=O)CCCn1cncn1)C2 (stereo not drawn) | 15.9
CCc1cnc(CN(C(C)=O)C2CCN(CCc3ccccc3)C2)o1 (stereo not drawn) | 18.3
CCc1nnc2n1CCN(C(=O)CN(C)C1CC1)C2 | -0.0438
CNS(=O)(=O)c1ccc(C(=O)N2CCCCC2c2ccc(C)cc2)o1 (stereo not drawn) | -2.53
COCCN1CCC(CNC(=O)C2(c3ccccc3)CCC2)C1 (stereo not drawn) | -3.28

SMILES | cytotoxicity at 70.5 h [%]
COCCN1CCC(CNC(=O)C2(c3ccc(Br)cc3)CCCC2)C1 (stereo not drawn) | -0.291
Cc1ccc(C2=CCN(C(=O)C3CCN(C)C(=O)C3)CC2)cc1 (stereo not drawn) | -6.32
COc1ccc(C2=CCN(C(=O)C3CCCN(C(C)=O)C3)CC2)cc1 (stereo not drawn) | -1.69
CCc1cnc(CN(C(C)=O)C2CCN(CCN3CCCCC3)C2)o1 (stereo not drawn) | -3.61
Cc1ccccc1C1CCCN1Cc1ccc(S(=O)(=O)N(C)C)o1 (stereo not drawn) | -2.87
CN(C)C(=O)CCCS(=O)(=O)Cc1cc(Cl)c2c(c1)OCO2 | -2.84
CC(C)c1nn(C)c(N(C)C)c1CNCCC(=O)NC1CCCCC1 | 37.6
Cc1nn(C)c(N(C)C)c1CNCCC(=O)NC1CCCC1 | 3.14
Cc1nn(C)c(N(C)C)c1CNCCC(=O)NC1CCCCC1 | -0.221
CNS(=O)(=O)c1ccc(C(=O)N2CCCC2c2ccccc2C)o1 (stereo not drawn) | -1.59
COc1c(CNCCC(=O)NC2CCCCC2)c(C(C)C)nn1C | -0.685
CCn1ncc2c1CN(C(=O)c1cc(C)oc1C)CC2COC (stereo not drawn) | -0.428
CCc1ccc(NC(=O)N2Cc3c(CN(C)C)nn(C)c3C2)cc1 | -2.56
Cc1ccc(N2CCC3(CC2)CCN(C2CCOCC2)CC3)nn1 | -2.19
O=C1CC2(CCCCN2CC2CC2)CN1c1ccccc1 (stereo not drawn) | -3.65
O=C(NC1CC1)[C@@H]1CN(Cc2ccc3c(c2)OCO3)C[C@H]2OCC[C@H]21 | -1.06
Cc1cccc(CN2CCc3c(CNC(=O)CC#N)nn(C)c3C2)n1 | -0.367
N#Cc1ccccc1N1CC2(CCCCN2CC2CC2)CC1=O (stereo not drawn) | 7.89
CCn1ncc2c1C(COCC1CC1)N(Cc1ccccn1)CC2 (stereo not drawn) | -1.07
c1ccc(OCc2n[nH]c3c2CN(CC2CC2)C3)nc1 | -2.5
c1ccc(OCc2n[nH]c3c2CN(Cc2cccs2)C3)nc1 | -0.121
